Reference: the supplement of paper PMC11451515

Tested on: NOMO1
Test: cell viability relative to DMSO control; higher = less cytotoxic
Conditions: 48 h
Method in brief: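 Three leukemia lines were tested: NOMO1 and SEM at 500 cells/well and P12-Ichikawa at 1000 cells/well. Each was adapted for at least four passages in each medium and seeded in 5 μl in 1536-well plates, and library compounds in DMSO were pin-dosed from 47 μM to 0.79 nM in 11 threefold steps. After 48 h at 37°C, CellTiter-Glo One luminescence was read. Viability is a percentage relative to DMSO wells on each plate, with cell-free wells as background.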

[1] = HPLM + 10% dialyzed FBS, 0.000781 µM
[2] = HPLM + 10% dialyzed FBS, 0.00234 µM
[3] = HPLM + 10% dialyzed FBS, 0.00702 µM
[4] = HPLM + 10% dialyzed FBS, 0.0211 µM
[5] = HPLM + 10% dialyzed FBS, 0.0632 µM
[6] = HPLM + 10% dialyzed FBS, 0.19 µM
[7] = HPLM + 10% dialyzed FBS, 0.569 µM
[8] = HPLM + 10% dialyzed FBS, 1.71 µM
[9] = HPLM + 10% dialyzed FBS, 5.12 µM
[10] = HPLM + 10% dialyzed FBS, 15.4 µM
[11] = HPLM + 10% dialyzed FBS, 46.1 µM
[12] = RPMI 5 mM glucose + 10% FBS, 0.000781 µM
[13] = RPMI 5 mM glucose + 10% FBS, 0.00234 µM
[14] = RPMI 5 mM glucose + 10% FBS, 0.00702 µM
[15] = RPMI 5 mM glucose + 10% FBS, 0.0211 µM
[16] = RPMI 5 mM glucose + 10% FBS, 0.0632 µM
[17] = RPMI 5 mM glucose + 10% FBS, 0.19 µM
[18] = RPMI 5 mM glucose + 10% FBS, 0.569 µM
[19] = RPMI 5 mM glucose + 10% FBS, 1.71 µM
[20] = RPMI 5 mM glucose + 10% FBS, 5.12 µM
[21] = RPMI 5 mM glucose + 10% FBS, 15.4 µM
[22] = RPMI 5 mM glucose + 10% FBS, 46.1 µM
[23] = RPMI 5 mM glucose + 10% dialyzed FBS, 0.000781 µM
[24] = RPMI 5 mM glucose + 10% dialyzed FBS, 0.00234 µM
[25] = RPMI 5 mM glucose + 10% dialyzed FBS, 0.00702 µM
[26] = RPMI 5 mM glucose + 10% dialyzed FBS, 0.0211 µM
[27] = RPMI 5 mM glucose + 10% dialyzed FBS, 0.0632 µM
[28] = RPMI 5 mM glucose + 10% dialyzed FBS, 0.19 µM
[29] = RPMI 5 mM glucose + 10% dialyzed FBS, 0.569 µM
[30] = RPMI 5 mM glucose + 10% dialyzed FBS, 1.71 µM
[31] = RPMI 5 mM glucose + 10% dialyzed FBS, 5.12 µM
[32] = RPMI 5 mM glucose + 10% dialyzed FBS, 15.4 µM
[33] = RPMI 5 mM glucose + 10% dialyzed FBS, 46.1 µM

| Compound | cell viability [1] [%] | cell viability [2] [%] | cell viability [3] [%] | cell viability [4] [%] | cell viability [5] [%] | cell viability [6] [%] | cell viability [7] [%] | cell viability [8] [%] | cell viability [9] [%] | cell viability [10] [%] | cell viability [11] [%] | cell viability [12] [%] | cell viability [13] [%] | cell viability [14] [%] | cell viability [15] [%] | cell viability [16] [%] | cell viability [17] [%] | cell viability [18] [%] | cell viability [19] [%] | cell viability [20] [%] | cell viability [21] [%] | cell viability [22] [%] | cell viability [23] [%] | cell viability [24] [%] | cell viability [25] [%] | cell viability [26] [%] | cell viability [27] [%] | cell viability [28] [%] | cell viability [29] [%] | cell viability [30] [%] | cell viability [31] [%] | cell viability [32] [%] | cell viability [33] [%] |
| --- | --- | --- | --- | --- | --- | --- | --- | --- | --- | --- | --- | --- | --- | --- | --- | --- | --- | --- | --- | --- | --- | --- | --- | --- | --- | --- | --- | --- | --- | --- | --- | --- | --- |
| CN1\C(=C(\O)C2=C(C=CS2)[S+]1([O-])=O)C(=O)NC3=CC=CC=N3 | 116 | 122 | 123 | 125 | 112 | 112 | 109 | 114 | 95.4 | 100 | 44.6 | 100 | 106 | 113 | 111 | 113 | 114 | 94.4 | 101 | 100 | 93.1 | 29.3 | 113 | 114 | 117 | 116 | 110 | 114 | 97.3 | 107 | 109 | 92.7 | 46.3 |
| Cc1cccc(-c2nn(C(=S)Nc3ccccc3)cc2-c2ccnc3ccccc23)n1 |  |  |  |  |  |  |  |  |  |  |  | 108 | 118 | 109 | 122 | 111 | 113 | 119 | 108 | 115 | 81.6 | 94.9 | 115 | 122 | 112 | 119 | 115 | 103 | 111 | 104 | 117 | 112 | 102 |
| NC(CO)(CO)CCc1ccc(Sc2cccc(OCc3ccccc3)c2)cc1Cl | 108 | 107 | 118 | 118 | 124 | 129 | 111 | 121 | 63.1 | 38.6 | 8.35 | 104 | 103 | 116 | 122 | 107 | 107 | 117 | 115 | 120 | 40.1 | 5.44 | 93.5 | 103 | 99.1 | 107 | 114 | 109 | 105 | 115 | 113 | 104 | 5.71 |
| CC1=C(C=CC=C1)N2\C(=N/C3=C(C(=CC=C3)C)C2=O)C[N]4N=CC5=C4N=CN=C5N | 114 | 116 | 147 | 133 | 148 | 147 | 49.6 | 44.3 | 40 | 38.5 | 35.2 | 122 | 126 | 121 | 143 | 125 | 129 | 33.4 | 26 | 26.2 | 22.9 | 22.7 |  |  |  |  |  |  |  |  |  |  |  |
| O=C(/C=C/c1c(C(=O)[O-])[nH]c2cc(Cl)cc(Cl)c12)Nc1ccccc1 | 112 | 115 | 116 | 116 | 99.9 | 117 | 118 | 110 | 113 | 112 | 108 | 90.5 | 99 | 99.5 | 95.1 | 101 | 116 | 107 | 107 | 107 | 124 | 107 | 110 | 109 | 114 | 126 | 126 | 120 | 115 | 120 | 111 | 127 | 118 |
| Cc1c(Cn2c(C)nc3c(C(=O)O)cc(N4CCOCC4)cc32)cccc1C(F)(F)F | 98.3 | 114 | 121 | 125 | 115 | 120 | 106 | 121 | 105 | 95.8 | 16.3 | 87.2 | 95.4 | 101 | 108 | 103 | 97.1 | 108 | 116 | 112 | 101 | 75 | 89.2 | 112 | 105 | 117 | 98.9 | 101 | 111 | 112 | 96.6 | 102 | 85.8 |
| CCOc1cc(N)c(Cl)cc1C(=O)NCC1CN(Cc2ccc(F)cc2)CCO1 (configuration not stated) | 85.2 | 120 | 125 | 118 | 119 | 120 | 102 | 120 | 128 | 111 | 107 | 102 | 115 | 106 | 108 | 114 | 108 | 106 | 113 | 122 | 109 | 104 | 113 | 115 | 122 | 118 | 116 | 111 | 125 | 112 | 111 | 107 | 107 |
| O=C1\C=C/C[C@@H]2[C@H]3CCCN4CCC[C@@H](CN12)[C@@H]34 | 116 | 110 | 117 | 106 | 125 | 107 | 101 | 107 | 121 | 89.2 | 104 | 90.2 | 94.3 | 97.1 | 90.9 | 95.4 | 93 | 93.4 | 85.9 | 91.8 | 93 | 93.4 | 106 | 107 | 103 | 116 | 94.1 | 104 | 90.3 | 106 | 105 | 98.9 | 86.6 |
